For assay [1], the system named is IL-6 release in ultraviolet irradiated keratinocytes. The assay is described as follows: Release of cytokine IL-6 in ultraviolet irradiated keratinocytes (ELISA). The format is cell-based, human. How it is done: (§1) Commercially available keratinocytes (Kurabo) were cultured in KGM-2 medium (Kurabo) according to the manufacturer's manual. The cells were seeded in a 12-well plate at 1.5×10^5 cells/well.
(§2) The medium in the 12-well plate was discarded on the day after seeding of the cells, and 24 hours after adding 2 ml of test solution dissolved in fresh medium, the culture supernatants were collected. The IL-6, IL-8, IL-1α and TNF concentrations in the recovered supernatants were measured using a commercially available ELISA kit (R&D Systems, USA).
(§3) After discarding the medium, PBS(−) was added and UVB was irradiated at 30 or 60 mJ/cm^2. Following the irradiation, the PBS(−) was discarded, 2 ml of the medium or test solution dissolved in the medium was added, and the culture supernatants were collected after 24 hours.
Cells were exposed to ultraviolet irradiation. After 24 h, keratinocyte cell supernatants were collected and the content of IL-6 was assayed with an ELISA kit.
On the technique in general: An ELISA detects its analyte on a solid surface through an enzyme-linked reagent.

The subject of assay [2] is IL-8 release from keratinocytes. The assay is described as follows: ATP-induced IL-8 release from keratinocytes (ELISA). The class given is cell-based, human. How it is done:
as §1, §2
ATP (10 μM-1 mM) dissolved in the culture medium was applied as a test solution to keratinocytes, and after 24 hours the culture supernatants were recovered and the inflammatory cytokine IL-8 was assayed with an ELISA kit.

Assay [3] concerns IL-8 release in ultraviolet irradiated keratinocytes. The assay is described as follows: Release of cytokine IL-8 in ultraviolet irradiated keratinocytes (ELISA). The format is cell-based, human. The protocol:
as §1, §2, §3
Cells were exposed to ultraviolet irradiation. After 24 h, keratinocyte cell supernatants were collected and the content of IL-8 was assayed with an ELISA kit.

The subject of assay [4] is TNFα release from keratinocytes. The assay is described as follows: ATP-induced TNFα release from keratinocytes (ELISA). The class given is cell-based, human. How it is done:
as §1, §2
ATP (10 μM-1 mM) dissolved in the culture medium was applied as a test solution to keratinocytes, and after 24 hours the culture supernatants were recovered and the inflammatory cytokine TNFα was assayed with an ELISA kit.

In assay [5] the test system is IL-6 release from keratinocytes. The assay is described as follows: ATP-induced IL-6 release from keratinocytes (ELISA). The format is cell-based, human. The protocol: as §1, §2
ATP (10 μM-1 mM) dissolved in the culture medium was applied as test solution to keratinocytes, and after 24 hours the culture supernatants were collected and the inflammatory cytokine IL-6 was assayed with the ELISA kit.

Assay [6] has as its system IL-1α release from keratinocytes. The assay is described as follows: ATP-induced IL-1α release from keratinocytes (ELISA). The class given is cell-based, human. The protocol: as §1, §2
ATP (10 μM-1 mM) dissolved in the culture medium was applied as a test solution to keratinocytes, and after 24 hours the culture supernatants were collected and the inflammatory cytokine IL-1α was assayed with an ELISA kit.

Assay [7] concerns IL-6 gene expression in keratinocytes. The assay is described as follows: IL-6 gene expression in keratinocytes (Taqman RT-PCR). Particulars: Taqman-PCR normalized to GAPDH. The format is cell-based, human. How it is done:
as §1
(§4) Keratinocytes were treated with the test solution and cells treated for 6 hours were used. Total RNA was extracted from the cells by addition of ISOGEN (Nippon Gene) according to the manufacturer's manual. cDNA was prepared with M-MLV reverse transcriptase (Life Technologies, Rockville USA), using 1 μg of RNA as template.
(§5) The gene sequence of the obtained cDNA was determined quantitatively by Taqman-PCR using an ABI PRISM 7700 Sequence Detector (Perkin Elmer) according to the manufacturer's manual, in the manner described in paragraph 11 of Japanese Unexamined Patent Publication (Kokai) No. 11-32799. The result was normalized on the basis of the expression level of human GAPDH (glyceraldehyde-3-phosphate dehydrogenase) used as an internal standard.
(In general: Quantitative PCR measures a nucleic acid by following its amplification.)

Assay [8] deals with IL-8 gene expression in keratinocytes. The assay is described as follows: IL-8 gene expression in keratinocytes (Taqman RT-PCR). The settings on record: Taqman-PCR normalized to GAPDH. The class given is cell-based, human. The protocol:
as §1, §4, §5

For a further assay, the system named is HR-1 mice. The assay is described as follows: Confirmation test for inflammation suppressing effect: acetone barrier disruption in a dry environment, HE staining of dorsal skin. The class given is in vivo. Particulars: dry environment (<10% RH), acetone-treated dorsal skin, coating with 1 mM Reactive blue 2, skin collected after 48 hours, control water. How it is done: After raising HR-1 mice for 48 hours in a dry environment (<10% RH), the dorsal skin was acetone-treated to disrupt its skin barrier function, and then the skin was applied with 1 mM Reactive blue 2. Control animals were applied with water. After an additional 48 hours, the dorsal skins of both animal groups were collected. The skin tissue was fixed with formaldehyde and subjected to hematoxylin-eosin (HE) staining and observed under an optical microscope.

[9] abbreviates: pretreatment of the cells with suramin, data not shown.
Where [10] appears, read: ATP 10 μM-1 mM, 24 hours, ELISA, in proportion to ATP concentration.
The mark [11] stands for this setting: ATP 30-1000 μM, concentration-dependent.
The mark [12] stands for this setting: ATP 10 μM-1 mM, 24 hours, ELISA, in proportion to concentration.
Where [13] appears, read: UVB irradiation 10 minutes after pretreatment with 100 μM Reactive blue 2, supernatant after 24 h, ELISA.
Setting [14] is: keratinocytes pretreated with 30-100 μM Reactive blue 2, ATP added 10 minutes later, supernatant after 24 hours, ELISA.
Setting [15] is: Reactive blue 2 100 μM, cells treated 6 hours.
The mark [16] stands for this setting: keratinocytes pretreated with 100 μM Reactive blue 2, ATP added 10 minutes later, supernatant after 24 hours, ELISA.

Consider `Cc1ccc(C(=O)Nc2ccc(S(=O)(=O)O)c3cc(S(=O)(=O)O)cc(S(=O)(=O)O)c23)cc1NC(=O)c1cccc(NC(=O)Nc2cccc(C(=O)Nc3cc(C(=O)Nc4ccc(S(=O)(=O)O)c5cc(S(=O)(=O)O)cc(S(=O)(=O)O)c45)ccc3C)c2)c1` [suramin], for which the “increase in IL-6 release produced by ultraviolet irradiation” value in assay [1] (setting [9]) is “similarly inhibited”. In addition, the “increase in IL-8 release produced by ATP addition” value in assay [2] (setting [9]) is “similarly inhibited”. Besides, the “increase in IL-8 release produced by ultraviolet irradiation” value in assay [3] (setting [9]) was “similarly inhibited”. Moreover, in [4] (setting [9]), the “increase in TNFα release produced by ATP addition” value is “similarly inhibited”. The “increase in IL-6 release produced by ATP addition” value in assay [5] (setting [9]) is listed as “similarly inhibited”. Further, in assay [6] (setting [9]), the “increase in IL-1α release produced by ATP addition” value is listed as “similarly inhibited”.

In the case of `Nc1ncnc2c1ncn2[C@@H]1O[C@H](COP(=O)(O)OP(=O)(O)OP(=O)(O)O)[C@@H](O)[C@H]1O` [ATP, adenosine triphosphate], in assay [2] (setting [10]), the “IL-8 in culture supernatant after addition of ATP” value is “significant increase”. Also, the “IL-6 expression over non-stimulated cells (controls)” value in [7] (setting [11]) is reported as “significantly increased”. Besides, in assay [8] (setting [11]), the “IL-8 expression over non-stimulated cells (controls)” value was “significantly increased”. The “TNFα in culture supernatant after addition of ATP” value in [4] (setting [12]) is recorded as “significant increase”. Moreover, the “IL-6 in culture supernatant after addition of ATP” value in assay [5] (setting [10]) was “significant increase”. Also, the “IL-1α in culture supernatant after addition of ATP” value in assay [6] (setting [12]) was “significant increase”.

As to `Nc1c(S(=O)(=O)O)cc(Nc2ccc(Nc3nc(Cl)nc(Nc4cccc(S(=O)(=O)O)c4)n3)c(S(=O)(=O)O)c2)c2c1C(=O)c1ccccc1C2=O` [Reactive blue 2], the “ultraviolet irradiation-induced increase in IL-6” value in [1] (setting [13]) is reported as “significantly inhibited”. In [2] (setting [14]), the “ATP-induced increase in IL-8” value is “significantly inhibited”. In assay [3] (setting [13]), the “ultraviolet irradiation-induced increase in IL-8” value is “significantly inhibited”. Further, the “ATP-induced increase in IL-6 gene expression” value in [7] (setting [15]) is listed as “significantly inhibited”. Also, in assay [8] (setting [15]), the “ATP-induced increase in IL-8 gene expression” value was “significantly inhibited”. In addition, the “ATP-induced increase in TNFα” value in assay [4] (setting [16]) was “significantly inhibited”. The “epidermal hyperplasia after barrier disruption (HE staining)” value in the assay with HR-1 mice was “inhibits the epidermal hyperplasia”. Also, the “ATP-induced increase in IL-6” value in [5] (setting [14]) is “significantly inhibited”. Also, in [6] (setting [16]), the “ATP-induced increase in IL-1α” value was “significantly inhibited”.

(Values after patent US20050209201A1, “Method and composition for suppression of inflammation” (Shiseido Co., Ltd., priority 2004, published 2005).)
